Results as given in publication PMC10010313, “A Phase I Study of Pelabresib (CPI-0610), a Small-Molecule Inhibitor of BET Proteins, in Patients with Relapsed or Refractory Lymphoma” (Cancer Research Communications, 2022).
Where “and” joins values, the source holds several entries; their conditions need not be identical. Equal values may be shown once. Read-outs that look alike come from different tables or passages of the source.

Columns and labels:
[1] = tested on: patients with relapsed or refractory lymphoma; assay: Treatment-emergent adverse events, phase 1 study 0610–01; format: in vivo
Description: Study 0610–01 was a first-in-human phase 1, multi-center, open-label, dose-escalation study of pelabresib (CPI-0610) in patients with relapsed or refractory lymphoma (NCT01949883).
Eligible patients for treatment with pelabresib were adults with relapsed non-Hodgkin or Hodgkin lymphoma after at least one prior therapy or who were not eligible for high-dose chemotherapy and autologous stem cell transplantation or had refused high-dose chemotherapy and autologous stem cell transplantation. Patients were required to have platelet count ≥75 × 10^9/L, absolute neutrophil count ≥1.0 × 10^9/L, and Eastern Cooperative Oncology Group performance status of 2 or less.
(§1) Pelabresib was administered once daily (QD) for 14 days followed by a 7-day break, in continuous 21-day cycles to prevent/ameliorate thrombocytopenia. Cohorts of 3 to 6 patients were sequentially enrolled with increasing doses of pelabresib (6, 12, 24, 48, 80, 120, 170, 230, and 300 mg with the capsule formulation and 125 mg and 225 mg with the micronized tablet formulation) until the MTD was determined. Pelabresib was administered under fasting conditions (no food intake 2 hours before until 1 hour after study drug administration).
(§2) The primary objective of the study was to determine the MTD of pelabresib with characterization of dose-limiting toxicities (DLT) as a primary endpoint. Secondary objectives included adverse events (AE) and serious adverse events (SAE); tumor response according to 2007 Revised Response Criteria for Malignant Lymphoma ([13]); plasma concentration of pelabresib; PK parameters; changes in expression of MYC and other genes sensitive to BET inhibition; and changes in levels of selected mRNAs that are expressed in PBMCs and are sensitive to BET inhibition.
(§3) The MTD of pelabresib was defined as the highest dose that could be given without causing DLT in 33% or more of the patients treated at that dose (capsules or tablets). Dose-escalation followed a traditional “3 + 3” design based on the frequency of DLT. All patients who were treated with at least 1 dose of pelabresib were included in the Safety Population and used for all tabulations of demographic information, baseline characteristics, safety, PK, pharmacodynamic, and efficacy analyses.

[2] = tested on: patients with relapsed or refractory lymphoma; assay: Dose-limiting toxicities / MTD determination (3 + 3 dose escalation); format: in vivo
Description: as §1, §2, §3

[3] = tested on: relapsed or refractory lymphoma; assay: Tumor response, 2007 Revised Response Criteria for Malignant Lymphoma; format: in vivo, human
Description: as §2, §3

IL8 = IL8 mRNA expression in patient whole blood (qPCR); format: in vivo, human
Description: (§4) Whole (peripheral) blood samples were also collected at selected time points that coincided with PK sampling. Blood from patients was drawn into PAXgene blood RNA tubes (Becton Dickinson) at the clinical sites and shipped frozen to the Massachusetts General Hospital (MGH, Boston, MA) for processing. RNA was purified using a PAXgene Blood RNA Kit IVD (Qiagen) according to the manufacturer's protocol and quantitated using a Nanodrop 8000 (Thermo Scientific). RNA isolated from PBMCs was used to synthesize cDNA for qPCR analysis and gene expression was assessed by qPCR using a CCR1 or IL8 TaqMan assay. Housekeeping genes were assessed using B2M TaqMan assay, PPIB Universal Probe Library (UPL) or TaqMan assay. Relative gene expression for CCR1 and IL8 was determined after normalization to the geometric mean of the two housekeeping genes (B2M and PPIB).

CCR1 = CCR1 mRNA expression in patient whole blood (qPCR); format: in vivo, human
Description: as §4

[4] = tested on: IL8 and CCR1 gene expression; assay: PK/PD analysis of maximum gene suppression versus exposure (Emax model); format: in vivo, human
Description: To further explore the relationship between pelabresib exposure and suppression of gene expression, individual maximum gene suppression (the nadir of individual gene expression versus time profiles) was plotted as a continuous function of individual Cmax and AUC for both CCR1 and IL8. […] In total, based on this analysis, pharmacodynamic responses of at least 50% suppression in gene expression are evident at AUC and Cmax as low as 4,000 ng/hr/mL and 500 ng/mL, respectively. These exposures were achieved on average at capsule doses of 80 mg and above and were exceeded at both tablet doses.

platelet count = assay: Platelet count values versus pelabresib dose; format: in vivo, human; settings: QD 14 days on, 7 days off
Description: To accommodate for different baseline platelet count values in different patients, changes in platelet count values were expressed as a fraction or ratio of the baseline value. There was a strong correlation between the Day 14:Day 1 platelet count ratio and pelabresib dose (R^2 = 0.81).

[5] = human, in vivo
Description: (§5) To characterize the plasma PK of pelabresib for the first dose and at steady state for multiple dosing, blood samples were taken before and at 0.5, 1, 1.5, 2, 3, 4, 6, 8, and 24 hours after the initial dose; before dosing on Day 8; before and at 0.5, 1, 1.5, 2, 3, 4, 6, 8, 24, 48, 72, 96, and 120 hours after the Day 14 dose; and prior to dosing on Day 1 of Cycle 2. Blood samples were centrifuged within 30 minutes of collection to harvest the plasma which was promptly stored in cryovials maintained at −80°C. The concentration of CPI-0610 in plasma samples was determined by reverse-phase high performance liquid chromatography with tandem mass spectrometric detection. The assay was validated and applied to the analysis of study samples according to the recommendations in the current FDA guidance. At the lowest concentration included in the calibration curves, which was 0.25 ng/mL, interday accuracy was within 0.3% of the nominal concentration and the precision was 3.0%. Interday accuracy ranged from 99.9 to 101.2% and the precision ranged from 4.0 to 6.0% for all other calibration standards. Actual time points were calculated as the difference between the blood sample collection time and the time that the drug was taken. The plasma concentration–time data were analyzed by noncompartmental methods using WinNonlin version 5.0.1 (Pharsight Corp). Area under the plasma concentration–time curve from the time of dosing to the time of last sample collected prior to administration of the next dose (AUC0–24) was estimated using the linear-log trapezoidal method. Apparent oral clearance (CL/F) was calculated as the dose divided by the AUC0–24 for the dose given on Day 14. Pharmacokinetic parameters are reported as the geometric mean [geometric coefficient of variation (CV%)] of the values for individual patients at each dose level unless otherwise indicated.

MYC = tested on: MYC; design: method as in PMID 21949397; settings: cited from earlier work
[6] = tested on: ABC- diffuse large B-cell lymphoma (DLBCL) and Burkitt lymphoma (BL) cell lines; settings: preclinical studies; cited from earlier work
NF-κB signaling = settings: preclinical studies; cited from earlier work
[7] = crystalline form of pelabresib; cited from earlier work
[8] = design: method as in PMID 21949397; settings: cited from earlier work
clinical = settings: human, in vivo
Description: as §5

[9] = Plasma pharmacokinetics (LC-MS/MS, noncompartmental)
Description: as §5

[10] = including both tablet dose levels
[11] = whole blood, 2, 6 and 8 hours after administration
[12] = individual maximum gene suppression, inhibitory Emax model

Cc1noc2c1-c1ccccc1C(c1ccc(Cl)cc1)=N[C@H]2CC(N)=O [pelabresib]
Patients who died while on study ([1]; cause disease progression, none considered related to the investigational product): 9 (14.1%) patients (%)
SAE disease progression ([1]; grade 5): 7 patients
Anemia of Grade 3 or higher ([1]; human, in vivo): 7 (10.9%) patients (%)
Diarrhea of Grade 3 or higher ([1]; human, in vivo): 4 (6.3%) patients (%)
Gastrointestinal TEAEs ([1]; human, in vivo): 43 (67.2%) patients (%)
Patients with at least 1 TEAE ([1]; human, in vivo): 64 patients
Patients with at least 1 TEAE of Grade 3 or higher intensity ([1]; human, in vivo): 44 (68.8%) patients (%)
SAE diarrhea ([1]; human, in vivo): 4 patients
SAE disease progression ([1]; human, in vivo): 1 patient
SAE pain ([1]; human, in vivo): 2 patients
SAE pneumonia ([1]; human, in vivo): 2 patients
TEAE Anemia ([1]; human, in vivo): 16 (25.0) n (%)
TEAE Decreased appetite ([1]; human, in vivo): 17 (26.6) n (%)
TEAE Diarrhea ([1]; human, in vivo): 12 (18.8) n (%)
TEAE Dysgeusia ([1]; human, in vivo): 10 (15.6) n (%)
TEAE Fatigue ([1]; human, in vivo): 23 (35.9) n (%)
TEAE Hyperglycemia ([1]; human, in vivo): 12 (18.8) n (%)
TEAE Lymphopenia ([1]; human, in vivo): 13 (20.3) n (%)
TEAE Nausea ([1]; human, in vivo): 18 (28.1) n (%)
TEAE Thrombocytopenia events ([1]; human, in vivo): 29 (45.3) n (%)
TEAE Vomiting ([1]; human, in vivo): 13 (20.3) n (%)
TEAEs that led to treatment discontinuation ([1]; human, in vivo): 9 (14.1%) patients (%)
Thrombocytopenia events of Grade 3 or higher ([1]; human, in vivo): 13 (20.3%) patients (%)
Treatment-emergent SAEs ([1]; human, in vivo): 27 (42.2%) patients (%)
Recommended phase 2 dose (RP2D) ([2]; human, in vivo, 14 days): 125 mg
DLTs: gastrointestinal (GI) events ([2]; human, in vivo, 21 days): 2
DLTs: hematologic events ([2]; human, in vivo, 21 days): 5
DLTs: rash ([2]; human, in vivo, 21 days): 1
Total DLT events considered for dose-escalation ([2]; human, in vivo, 21 days): 8
MTD ([2]; tablet, QD for 14 days with a 7-day break): 225 mg
Overall response rate (CR + PR) ([3]; 4 of 64 patients): 6.2%
Patients with prolonged (>6 months) stable disease ([3]; 64 patients): 5 patients
Best overall response CR ([3]; Overall N = 64): 2 (3.1%) n (%) and 2 (3.1) n (%)
Best overall response PR ([3]; Overall N = 64): 2 (3.1%) n (%) and 2 (3.1) n (%)
Best overall response SD ([3]; Overall N = 64): 21 (32.8%) n (%) and 21 (32.8) n (%)
Overall response rate (CR + PR) ([3]; Overall N = 64, all doses and formulations): 4 (6.2) n (%)
Lowest dose at which complete remission was achieved ([3]; QD capsule): 48 mg
Median duration of response (CR or PR), (range) ([3]; patients with CR or PR): 8.4 (6.1–46.1) weeks
Time to treatment (CR or PR) ([3]; patients with CR or PR): 4–18 cycles
Time to response (CR or PR) ([3]; patients with CR or PR, 21-day cycles): 2–6 cycles
Dose level with maximum reduction of IL8 expression (IL8; capsule): 120 mg
Capsule doses at whose exposures suppression of IL8 was much more apparent (IL8; [10]): greater than or equal to 120 mg
Earliest time of decreased IL8 expression postdose (IL8; whole blood): ≤ 2 h
Capsule dose above which appreciable changes in expression of IL8 were shown (IL8; [11]): above 120 mg
Capsule doses at whose exposures suppression of CCR1 was much more apparent (CCR1; [10]): ≥ 170 mg
Earliest time of decreased CCR1 expression postdose (CCR1; whole blood): ≤ 2 h
Capsule dose above which appreciable changes in expression of CCR1 were shown (CCR1; [11]): > 170 mg
Capsule doses at which these exposures (AUC 4,000, Cmax 500) were achieved on average ([4]; exceeded at both tablet doses): ≥ 80 mg
AUC at which at least 50% suppression in gene expression is evident [4, 12]: ≥ 4,000 ng/hr/mL
Cmax at which at least 50% suppression in gene expression is evident [4, 12]: ≥ 0.5 µg/mL
Character of decreases in platelet count values (platelet count): dose dependent, reversible, and non-cumulative
Factor to convert tablet doses to capsule doses [5]: 1.34
Range of time of peak plasma concentrations [5]: 0.9 to 7.9 h
Mean AUC0–24 ([5]; 225 mg): 20,700 ng/h/mL
Accumulation at most ([5]; 14 days): ≤ 40%
Accumulation, mean (±SD) ([5]; 14 days): 4.3 ± 1.0%
Time by which MYC expression had returned to its baseline value (MYC; single 30 mg/kg oral dose ref 11): ≤ 12 h
Maximum inhibition of MYC expression in tumor tissue (MYC; single 30 mg/kg oral dose, 4 hours postdosing, immunodeficient mice ref 11): 75%
Time of maximum inhibition of MYC expression (MYC; single 30 mg/kg oral dose, earliest postdosing time point assessed ref 11): 4 h
Effect on viability [6]: loss of viability
Effect on NF-κB signaling activity (NF-κB signaling): downregulation
Aqueous solubility [7]: low
Clearance in mice [8]: rapid clearance
Cmax (clinical; 225 mg): 2.02 µg/mL
bioavailability (clinical; Exposure (bioavailability) of tablet greater than capsule): 60%
half-life (clinical; Half-life (mean apparent terminal phase)): ~15 h
Tmax (clinical; Median time of peak plasma concentrations): 1.9 h
Tmax (clinical; Median time to maximum plasma concentrations): 2 h
Tmax (clinical; Range of time of peak plasma concentrations): 0.5 to 7.4 h
half-life (clinical; Terminal half-life, geometric mean (geometric CV)): 15.3 h
Accumulation, mean (±SD) ([9]; capsule formulation, 14 days of continuous QD dosing): 20.5 ± 7.2%
half-life ([9]; human, plasma, oral, Terminal half-life, geometric mean (geometric CV), capsule): 11.6 h
Tablet dose approximately corresponding to the 120 mg capsule dose level ([9]; in vivo): ~75 mg
Apparent oral clearance, geometric mean (geometric CV) ([9]; tablet dosage form, Day 14): 12.3 (27.2%) L/h
